For 7 compounds, TGI results are on record in PubChem BioAssay (NCI).

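Grown in 96-well plates, cells were treated for 48 hours with each compound at five concentrations. Insufficient inhibition: endpoint recorded as highest concentration tested. TGI is the concentration that stops growth completely.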 Where only a bound is given, the exact number is not on record here.

Common to all, as to assay: inhibition of tumour cell growth, NCI panel, 48 h
Assay [1] deals with RPMI-8226 leukemia.
Assay [2] concerns SF-295 CNS.
Assay [3] has as its system MDA-N.
In assay [4] the test system is HOP-62 NSCLC.
Assay [5] concerns SK-MEL-2 melanoma.
In assay [6] the test system is UACC-62 melanoma.
Assay [7] deals with HOP-92 NSCLC.
Assay [8] relates to SNB-75 CNS.
Assay [9] deals with DU-145 prostate.
The subject of assay [10] is BT-549 breast.
Assay [11] relates to K-562 leukemia.
Assay [12] deals with NCI-H460 lung.
For assay [13], the system named is HT29 colon.
Assay [14] relates to NCI-H23 lung.
Assay [15] has as its system MDA-MB-435.
Assay [16] concerns MCF7 breast.
Assay [17] deals with A549 NSCLC.
In assay [18] the test system is T-47D breast.
Assay [19] has as its system SK-OV-3 ovarian.
Assay [20] concerns LOX IMVI melanoma.

With `O=C(OC(/C=C/c1ccccc1)P1(=O)N(Cc2ccccc2)[C@@H]2CCCC[C@H]2N1Cc1ccccc1)c1ccccc1` (stereo not given in full), the TGI in assay [1] is 6.53 µM; in [2], more than 100 µM; in [3], more than 100 µM; in assay [4] it was more than 100 µM; in [5], 5.67 µM; in [6], more than 100 µM. Besides, the TGI is 8.08 µM in [7]; more than 28.1 µM in assay [8]; more than 100 µM in assay [9]; more than 55.8 µM in [10]; more than 100 µM in assay [11]; more than 27.3 µM in [12]. The TGI in assay [13] is more than 100 µM; in assay [14] it was more than 31.5 µM; in [15], more than 100 µM; in assay [16] it was more than 100 µM; in assay [17], more than 100 µM; in assay [18], more than 100 µM. The TGI in assay [19] was more than 100 µM; in assay [20], more than 74.9 µM.

As for `O=[N+]([O-])c1ccc(NC(=S)Nc2ccccn2)cc1`, the TGI in assay [1] was more than 100 µM; in assay [2], more than 100 µM; in assay [3], more than 100 µM; in assay [4], 44.8 µM; in [5], more than 100 µM; in assay [6] it was more than 100 µM. Moreover, the TGI in [7] is more than 100 µM; in [8], 71.6 µM; in [9], 35.5 µM; in [10], more than 100 µM; in assay [11], more than 100 µM; in assay [12], more than 100 µM. The TGI in assay [13], in assay [14], in [15], in [16], in [17] and in assay [18] was more than 100 µM each time. The TGI in assay [19] and in [20] was more than 100 µM in each case.

In the case of `COc1cc(-c2oc(C=Nc3ccccc3)c([N+](=O)[O-])c2-c2ccc(O)c(OC)c2)ccc1O`, the TGI in assay [1] was 72.4 µM; in [2], more than 95.7 µM; in assay [3], more than 85.7 µM; in assay [4] it was more than 100 µM; in [5], more than 100 µM; in assay [6], 47.2 µM. Further, the TGI in assay [7] was more than 51.9 µM; in assay [8], 64.4 µM; in assay [9], 53.3 µM; in assay [10] it was more than 100 µM; in [11], more than 100 µM; in assay [12], 35.5 µM. Further, the TGI was more than 55.9 µM in [13]; 33.9 µM in assay [14]; more than 85.9 µM in [15]; more than 100 µM in [16]; more than 87.2 µM in assay [17]; more than 100 µM in [18]. Also, the TGI in assay [19] was more than 64.7 µM; in assay [20] it was more than 100 µM.

Consider `CC(C)c1ccc2[nH]c(O)c(C3=Nc4ccccc4C3=O)c2c1`, for which the TGI in assay [1] was more than 100 µM; in [2], more than 100 µM; in assay [3], more than 100 µM; in assay [4], 21 µM; in [5], 53.8 µM; in assay [6] it was 69.8 µM. Also, the TGI in assay [7] is 23.4 µM; in assay [8] it was 9.36 µM; in assay [9], 94.5 µM; in [10], 69.6 µM; in assay [11], more than 100 µM; in [12] it was more than 100 µM. Moreover, the TGI is more than 100 µM in assay [13]; more than 100 µM in assay [14]; more than 100 µM in assay [15]; 1.3 µM in assay [16]; more than 100 µM in assay [17]; 17.2 µM in assay [18]. Further, the TGI is 30.2 µM in assay [19] and more than 100 µM in assay [20].

`C1=NCCNCCN=Cc2ccccc2OCc2cccc(n2)COc2ccccc21`: the TGI in assay [1] was more than 54.1 µM; in assay [2], more than 51.4 µM; in [3] it was 31.4 µM; in assay [4], 54.8 µM; in assay [5], 99.8 µM; in assay [6], more than 64.3 µM. In addition, the TGI in [7] is more than 100 µM; in assay [8], more than 31.2 µM; in assay [9], more than 100 µM; in assay [10], 44.4 µM; in [11] it was more than 79.5 µM; in [12], more than 100 µM. Besides, the TGI is 47.3 µM in [13]; more than 52.9 µM in assay [14]; more than 68.7 µM in assay [15]; more than 56.9 µM in assay [16]; more than 100 µM in [17]; more than 100 µM in assay [18]. The TGI in assay [19] is more than 100 µM; in assay [20] it was 34 µM.

Take `CC(C)(C)[Si](C)(C)OCC#C[C@@]1(O)CCCCC1CC(Sc1ccccc1)Sc1ccccc1` (stereo not given in full): the TGI came to 73.3 µM in assay [1]; 28.2 µM in [2]; 37.7 µM in assay [3]; 31.4 µM in assay [4]; 31.7 µM in assay [5]; 26.7 µM in [6]. Besides, the TGI in assay [7] is 37.4 µM; in [8] it was 28.7 µM; in assay [9], 29.8 µM; in assay [10], 36.3 µM; in [11] it was more than 100 µM; in [12], 34.6 µM. Besides, the TGI in assay [13] was 27 µM; in assay [14] it was 36.1 µM; in [15], 31.4 µM; in assay [16] it was 24.7 µM; in assay [17], 28 µM; in [18] it was 25.5 µM. For the same compound, the TGI in assay [19] stood at 34.4 µM; in assay [20], 34.5 µM.

Turning to `CCCCCCCCCC1CC(=O)NCC(=O)NC(C(C)C)C(=O)NC(CC(C)C)C(=O)NC(C)C(=O)NC(C(C)C)C(=O)O1` (stereo not given), the TGI was more than 86.8 µM in assay [1]; 37 µM in assay [2]; more than 100 µM in assay [3]; 55 µM in [4]; more than 65.8 µM in assay [5]; 83.7 µM in assay [6]. Besides, the TGI in assay [7] is 41.9 µM; in assay [8] it was 18.2 µM; in assay [9] it was more than 74.9 µM; in assay [10], more than 100 µM; in assay [11] it was more than 53.3 µM; in [12], 23.6 µM. For the same compound, the TGI in assay [13] was 21.5 µM; in [14], 42.2 µM; in [15], 49.8 µM; in assay [16], more than 100 µM; in [17], 40.9 µM; in [18], more than 100 µM. For the same compound, the TGI in assay [19] was found to be 39.2 µM; in [20] it was 30.8 µM.
